This assay has as its system S. hominis B10 C-S β lyase. Put plainly: Transformation of Cys-3M3SH to 3M3SH by purified S. hominis B10 C-S β lyase. The class given is biochemical, Staphylococcus hominis. Conditions: for % inhibition: 2 mM Cys-3M3SH, 35° C. for 24 hours, relative to control without compound; for susceptibility of S. hominis C-S β-lyase to inhibition by classical inhibitors: qualitative statement, no concentration given. The source says:
The compounds identified by present invention represent a new class of deodorant actives that can be screened by the method disclosed herein. The method uses an odour-generating C-S β-lyase, in particular S. hominis B10 C-S β-lyase. In accordance with the procedure detailed in Example 1, the medium of the screening method comprises a 20 millimolar concentration of the compound to be screened. The medium further comprises S. hominis C-S β-lyase enzyme and 2 millimolar Cys-3M3SH. Following an incubation at 35° C. for a period of 24 hours, the reduction in 3M3SH released by S. hominis C-S β-lyase from Cys-3M3SH is measured. Herein, the inhibition of 3M3SH level is relative to a control without any compound being screened. In preferred embodiments, following the procedure detailed in Example 1, the medium comprises a 10 millimolar concentration of compound to be screened. In further preferred embodiments, the concentration of the compound to be screened can be 5 millimolar, preferably 2 millimolar, more preferably 1 millimolar, most preferably 0.5 millimolar.
The deodorant actives affecting S. hominis C-S β lyase are identified by using the following procedure. The Cys-3M3SH used in the procedure may be obtained using a method described in Chem. Biodivers., 2, 2005, 705-716. The purified S. hominis B10 C-S β lyase was prepared by cloning the gene encoding this enzyme into Escherichia coli using methodology known in the art. Recombinant S. hominis B10 C-S β-lyase was then expressed in E. coli and purified by immobilised metal ion affinity chromatography. M9 salts are mixtures of 6 g/L Na2HPO4, 3 g/L KH2PO4, 0.5 g/L NaCl, adjusted to pH 7.0 with NaOH.
Glass reaction tubes were set up, each containing 2 mM Cys-3M3SH (dissolved in M9 salts), 50 μM pyridoxal phosphate, purified S. hominis B10 C-S β lyase to a final concentration of 10 μg/ml, and M9 salts (or, where appropriate, a test material dissolved in M9 salts at, for example, 20 mM) to adjust the volume to 500 μl. Enzyme only (C-S beta-lyase) and substrate only (Cys-3M3SH) reactions were also included in each experiment. The reactions were incubated with shaking at 35° C. for 24 hours. To measure released 3M3SH, each reaction vial was first centrifuged at 13,000 rpm for 2 minutes. A volume of 0.095 ml labelling solution, consisting of 0.080 ml dH2O, 0.010 ml Tris (pH 8.0) and 0.005 ml 5,5′-dithiobis-(2-nitrobenzoic acid) (DTNB) stock solution (50 mM sodium acetate, 2 mM DTNB, dissolved in dH2O) was added to each well of a micro-titre plate. 0.005 ml of each reaction supernatant was added to the wells of the micro-titre plate, which was then incubated at room temperature for 5 minutes. Absorbance (A412) values, which correlate with the concentration of 3M3SH present, were recorded using a spectrophotometer. […] In these cases, a HPLC analysis was carried out according to the methodology described in J. Pharm. Biomed. Anal. 2008; 48:1375-80 and FEMS Microbiol. Lett., 263(16), 2015, fnv111.

[1] abbreviates: material concentration = 2 millimolar.
[2] abbreviates: material concentration = 20 millimolar.

For orientation: % inhibition means how much of the control response was suppressed. The low end stands for little suppression, the high end for strong suppression. With “1,8-Dioxa-4-azaspiro[4.5]decane-3-carboxylic acid(N-CBz protected) [EX17]”, the “% inhibition” value under setting [1] was 54.1%.

Take “1-oxa-4-azaspiro[4.5]decane-3-carboxylic acid(N-CBz protected) [EX16]”: the “% inhibition” value under setting [1] was found to be 30.3%.

For the molecule “2-(2-furyl)1,3-thiazolide-4-carboxylic acid [EX4]”, the “% inhibition” value stood at 20.8% under setting [1] and 80.4% under setting [2].

On to `N[C@H](COCc1ccccc1)C(=O)O` [C1, O-benzyl-D-serine, reference compound], for which the “% inhibition” value was 0% under setting [1]; “does not present significant reduction of malodour” (material concentration = 2 millimolar, listed as Cl); 8.2% under setting [2].

For `COc1ccc(C2NC(C(=O)O)CS2)cc1O` (stereo not shown) [EX1, 2-(3-hydroxy-4-methoxy-phenyl)-thiazolidine-4-carboxylic acid], the “% inhibition” value by setting is: under setting [1], 34.9%; under setting [2], 100%.

In the case of `COc1cc(C2NC(C(=O)O)CS2)ccc1O` (stereo not shown) [EX2, 2-(4-hydroxy-3-methoxyphenyl)-1,3-thiazolidine-4-carboxylic acid], the “% inhibition” value under setting [1] is 32.9% and the “% inhibition” value under setting [2] was determined as 100%.

In the case of `O=C(O)C1CSC2(CCC3(CC2)OCCO3)N1` (stereo not shown) [EX3, 1,4-dioxa-9-thia-12-azadispirol[4.2.4.2]tetradecane-11-carboxylic acid], the “% inhibition” value under setting [1] worked out at 32.3% and the “% inhibition” value under setting [2] turned out to be 80.6%.

`CCC(CC)C1NC(C(=O)O)CS1` (stereo not shown) [EX5, 2-(1-ethylpropyl)-4-thiazolidine-4-carboxylic acid]: the “% inhibition” value by setting is: under setting [1], 46%; under setting [2], 94.1%.

On to `O=C(O)C1CSC2(CCCCC2)N1` (stereo not shown) [EX6, 1-thia-4-azaspiro[4.5]decane-3-carboxylic acid], for which the “% inhibition” value worked out at 90.9% under setting [1] and 100% under setting [2].

For the molecule `O=C(O)C1CSC2(CCN(Cc3ccccc3)CC2)N1` (stereo not shown) [EX7, 8-benzyl-1-thia-4,8-diazaspiro[4.5]decane-3-carboxylic acid], the “% inhibition” value by setting is: under setting [1], 11.9%; under setting [2], 87.8%.

As to `O=C(O)C1CSC(c2ccccc2)N1` (stereo not shown) [EX8, 2-phenylthiazolidine-4-carboxylic acid], the “% inhibition” value under setting [1] is 12.3% and the “% inhibition” value under setting [2] was 95.9%.

For the molecule `C=CCOc1ccc(C2NC(C(=O)O)CS2)cc1` (stereo not shown) [EX9, 2-(4-(allyloxy)phenyl)-1,3-thiazolidine-4-carboxylic acid], the “% inhibition” value under setting [1] is 39.7% and the “% inhibition” value under setting [2] was determined as 100%.

`COc1ccc(C2NC(C(=O)O)CS2)cc1` (stereo not shown) [EX10, 2-(4-methoxyphenyl)-1,3-thiazolidine-4-carboxylic acid]: the “% inhibition” value is, setting by setting: under setting [1], 24.5%; under setting [2], 88.2%.

Turning to `CCCCCCC1NC(C(=O)O)CS1` (stereo not shown) [EX11, 2-hexyl-1,3-thiazolane-4-carboxylic acid], the “% inhibition” value is, setting by setting: under setting [1], 87.5%; under setting [2], 100%.

Consider `O=C(O)C1CSC(c2ccccc2O)N1` (stereo not shown) [EX12, 2-(2-hydroxy-pheny)-thiazolidine-4-carboxylic acid], for which the “% inhibition” value runs as follows: under setting [1], 46.5%; under setting [2], 100%.

Consider `N[C@H]1CONC1=O` [L-cycloserine, reference compound], for which the “susceptibility of S. hominis C-S β-lyase to inhibition by classical inhibitors” value was “much less susceptible to inhibition”.

For `NOCC(=O)O` [aminooxyacetic acid, reference compound], the “susceptibility of S. hominis C-S β-lyase to inhibition by classical inhibitors” value is recorded as “much less susceptible to inhibition”.

The values are drawn from patent US12246081B2, “Deodorant compositions” (Conopco, Inc., priority 2017, dated 2025).
